Activity calls are given as the source filed them. How the calls were made is not given here.
Target: T1, Exodeoxyribonuclease V (Escherichia coli (strain K12), UniProt P04993+P07648+P08394)
T1 sequence (P04993 whole entry): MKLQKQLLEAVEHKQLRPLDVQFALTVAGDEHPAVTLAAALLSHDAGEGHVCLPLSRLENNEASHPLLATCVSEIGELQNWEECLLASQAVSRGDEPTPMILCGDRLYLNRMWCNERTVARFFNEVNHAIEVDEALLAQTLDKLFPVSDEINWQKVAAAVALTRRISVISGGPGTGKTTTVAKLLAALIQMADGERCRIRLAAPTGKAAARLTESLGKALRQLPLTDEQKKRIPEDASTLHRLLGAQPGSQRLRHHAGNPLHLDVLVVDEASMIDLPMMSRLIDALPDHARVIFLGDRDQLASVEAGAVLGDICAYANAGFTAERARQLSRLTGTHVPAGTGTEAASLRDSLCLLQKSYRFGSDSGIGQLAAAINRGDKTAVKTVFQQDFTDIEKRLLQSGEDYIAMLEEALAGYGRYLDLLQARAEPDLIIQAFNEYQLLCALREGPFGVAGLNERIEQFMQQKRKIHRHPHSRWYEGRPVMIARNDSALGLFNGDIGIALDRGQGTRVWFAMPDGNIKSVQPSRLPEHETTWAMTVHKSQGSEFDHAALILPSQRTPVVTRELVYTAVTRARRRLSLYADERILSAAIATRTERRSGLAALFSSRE
T1 sequence (P07648 whole entry): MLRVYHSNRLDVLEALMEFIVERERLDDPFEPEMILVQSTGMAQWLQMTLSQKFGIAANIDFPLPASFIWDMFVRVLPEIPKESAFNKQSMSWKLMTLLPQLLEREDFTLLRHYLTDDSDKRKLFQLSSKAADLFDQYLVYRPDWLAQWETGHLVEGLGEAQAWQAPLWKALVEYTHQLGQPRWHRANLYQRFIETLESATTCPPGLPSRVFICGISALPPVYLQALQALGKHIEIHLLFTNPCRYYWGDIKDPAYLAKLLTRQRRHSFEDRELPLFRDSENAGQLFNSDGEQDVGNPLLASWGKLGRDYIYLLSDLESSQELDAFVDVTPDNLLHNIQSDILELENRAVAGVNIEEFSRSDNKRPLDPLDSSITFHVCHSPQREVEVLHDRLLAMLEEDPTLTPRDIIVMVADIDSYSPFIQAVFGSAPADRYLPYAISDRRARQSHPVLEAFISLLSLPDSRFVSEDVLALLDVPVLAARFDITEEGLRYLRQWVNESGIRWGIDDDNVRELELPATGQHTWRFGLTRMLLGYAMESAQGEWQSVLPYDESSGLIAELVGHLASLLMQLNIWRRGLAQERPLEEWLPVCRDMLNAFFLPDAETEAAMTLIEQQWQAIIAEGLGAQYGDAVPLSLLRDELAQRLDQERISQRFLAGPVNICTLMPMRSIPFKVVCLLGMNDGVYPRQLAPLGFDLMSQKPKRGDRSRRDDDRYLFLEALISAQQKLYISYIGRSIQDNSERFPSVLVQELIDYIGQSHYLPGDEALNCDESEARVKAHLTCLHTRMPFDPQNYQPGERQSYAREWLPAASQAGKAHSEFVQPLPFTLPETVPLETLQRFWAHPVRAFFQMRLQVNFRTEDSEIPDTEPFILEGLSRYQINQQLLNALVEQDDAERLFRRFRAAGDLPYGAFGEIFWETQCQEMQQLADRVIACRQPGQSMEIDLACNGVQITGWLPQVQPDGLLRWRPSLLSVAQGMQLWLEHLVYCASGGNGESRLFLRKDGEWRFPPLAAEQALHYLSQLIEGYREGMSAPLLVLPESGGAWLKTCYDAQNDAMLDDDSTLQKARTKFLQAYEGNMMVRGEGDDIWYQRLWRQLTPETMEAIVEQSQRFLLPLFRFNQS
T1 sequence (P08394 whole entry): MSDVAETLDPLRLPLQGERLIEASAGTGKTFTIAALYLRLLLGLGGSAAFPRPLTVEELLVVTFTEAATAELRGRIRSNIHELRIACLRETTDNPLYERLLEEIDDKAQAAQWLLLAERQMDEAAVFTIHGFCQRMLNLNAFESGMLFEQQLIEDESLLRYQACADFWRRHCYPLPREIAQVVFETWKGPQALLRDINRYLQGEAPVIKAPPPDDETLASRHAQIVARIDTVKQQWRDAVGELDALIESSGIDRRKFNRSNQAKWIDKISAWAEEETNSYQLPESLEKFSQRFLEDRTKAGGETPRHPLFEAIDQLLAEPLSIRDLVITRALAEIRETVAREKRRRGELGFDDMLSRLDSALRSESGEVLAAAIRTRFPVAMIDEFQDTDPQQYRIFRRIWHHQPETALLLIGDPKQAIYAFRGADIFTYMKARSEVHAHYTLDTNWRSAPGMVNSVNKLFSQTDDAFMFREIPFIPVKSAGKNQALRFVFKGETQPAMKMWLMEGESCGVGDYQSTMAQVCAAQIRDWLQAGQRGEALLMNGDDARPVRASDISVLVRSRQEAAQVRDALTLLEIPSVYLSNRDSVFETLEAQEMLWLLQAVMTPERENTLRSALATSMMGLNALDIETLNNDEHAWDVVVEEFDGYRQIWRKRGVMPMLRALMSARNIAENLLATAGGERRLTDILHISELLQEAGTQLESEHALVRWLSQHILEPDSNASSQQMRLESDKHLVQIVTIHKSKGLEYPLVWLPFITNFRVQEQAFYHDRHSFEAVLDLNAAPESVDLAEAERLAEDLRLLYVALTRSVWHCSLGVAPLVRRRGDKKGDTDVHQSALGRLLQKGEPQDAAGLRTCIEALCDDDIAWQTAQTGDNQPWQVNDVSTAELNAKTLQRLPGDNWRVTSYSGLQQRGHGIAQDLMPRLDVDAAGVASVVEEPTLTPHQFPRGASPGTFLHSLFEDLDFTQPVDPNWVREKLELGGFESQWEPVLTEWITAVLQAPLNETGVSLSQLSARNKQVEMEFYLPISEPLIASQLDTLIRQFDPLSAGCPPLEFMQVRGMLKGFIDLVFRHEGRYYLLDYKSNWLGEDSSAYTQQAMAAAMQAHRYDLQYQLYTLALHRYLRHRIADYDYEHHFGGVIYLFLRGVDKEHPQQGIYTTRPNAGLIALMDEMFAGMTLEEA
Test: RecBCD inhibition via phage-restricted bacterial growth – absorbance, V66 E. coli, mutant T4 phage, counter-screen for AddAB inhibitor project, dose response (AID 492957)
Format: functional, cell-based, Escherichia coli str. K-12 substr. MG1655

| Compound | IC50 |
| --- | --- |
| CCSc1nsc(NC(=O)Nc2cccc(F)c2)n1 | > 119 µM (inactive) |
| O=[N+]([O-])c1ccc(/C=N/n2cnc3ccccc32)s1 | > 119 µM (inactive) |

From ChEMBL document CHEMBL1201862, “PubChem BioAssay data set” (2004)
